# Results published in patent publication US20150038430A1, “THERAPEUTIC PEPTIDOMIMETIC MACROCYCLES” (AILERON Therapeutics, Inc., priority 2008, published 2015).
# Numbered stars: 1 amine (or outer) side, 2 acyl side, 3 side chain; on linkers, the order of the positions; unused ones are H or OH. Bridge positions count the residues as written; N and C are the ends. Square brackets hold non-standard residues; d marks the D form. Peptide text beside a SMILES is read from it. * marks the point of attachment. ξ: configuration not given here. ξαMeNle(6-ylidene) = CC(CCCC=[*:3])(N[*:1])C(=O)[*:2]; Nle = CCCC[C@H](N)C(=O)O; Aib = CC(C)(N)C(=O)O; Propionyl = CCC(=O)*
# Assays:
# [1] = test system: Molt-4; format: cell-based, human; settings: 24 h
# Experimental: (§1) Cell viability assays shown in FIGS. 34-52 were performed according to a similar protocol. Cells were split at optimal cell density a day prior to the initiation of the study. The next day, cells were washed twice in serum-free Opti-MEM media and 4000 cells/well were added to each well in a final volume of […] Opti-MEM. For serum-free experiments, macrocycles were diluted from 2 mM stocks (100% DMSO) in sterile water to prepare 400 μM working solutions. A 40 μM solution was then generated by ten-fold dilution in assay buffer. The macrocycle and controls were then serially diluted two-fold in assay buffer in dosing plates to provide concentrations between 1.2 and 40 μM, respectively. For experiments in 2% human serum, macrocycles were diluted from 10 mM stocks (100% DMSO) in sterile water to prepare 1 mM working solutions. A 100 μM solution was generated by ten-fold dilution in assay buffer. The macrocycles and controls were then serially diluted two-fold in assay buffer in dosing plates to provide concentrations between 3 and 100 μM, respectively. 50 μl of each dilution was then added to the appropriate wells of the test plate to achieve final concentrations of the macrocycle between 0.6 to 20 μM (for serum free experiment) or 1.5 to 50 μM (for 2% serum experiment), respectively. Controls included wells without macrocycles containing the same concentration of DMSO as the macrocycle-containing wells, wells containing 0.1% Triton X-100, and wells containing no cells. Plates were incubated for 24 hours at 37° C. in a humidified 5% CO2 atmosphere. At the end of a 24 hr incubation period, a CellTiter-Glo Luminescent Cell Viability Assay was performed according to manufacturer's instructions (Promega, catalog #G7571) and the luminescence was measured using a BIO-TEK synergy HT Plate reader. Values were plotted as percent viable, i.e. as a percentage of the negative control value (derived from cells exposed to DMSO only). All assays were performed in duplicate.
# (§2) The following tables summarize the EC50 values (μM) observed with peptidomimetic macrocycles of the invention in various cell lines: […]
# [2] = test system: A375; format: cell-based, human; settings: 24 h
# Experimental: as §1, §2
# [3] = test system: MM1S; format: cell-based, human; settings: 24 h
# Experimental: as §1, §2
# [4] = test system: RS4;11; format: cell-based, human; settings: 24 h
# Experimental: as §1, §2
# [5] = test system: DHL-6; format: cell-based, human; settings: 24 h
# Experimental: as §1, §2
# [6] = test system: NCI-H82 (SCLC-MCL1+); format: cell-based, human; settings: 24 h
# Experimental: as §1, §2
# [7] = test system: PC3; format: cell-based, human; settings: 24 h
# Experimental: as §1, §2
# [8] = test system: Jurkat; format: cell-based, human; settings: 24 h
# Experimental: as §1, §2
# [9] = test system: Raji; format: cell-based, human; settings: 24 h
# Experimental: as §1, §2
# [10] = test system: SEMK2; format: cell-based, human; settings: 24 h
# Experimental: as §1, §2
# [11] = test system: OVCAR8; format: cell-based, human; settings: 24 h
# Experimental: as §1, §2
# [12] = test system: MDA-MB231-Met; format: cell-based, human; settings: 24 h
# Experimental: as §1, §2
# [13] = biological target: Bcl-xL (Homo sapiens, UniProt Q07817); assay: Kd, μM | Bcl-xL
# Bcl-xL, sequence (Q07817 whole entry, looked up): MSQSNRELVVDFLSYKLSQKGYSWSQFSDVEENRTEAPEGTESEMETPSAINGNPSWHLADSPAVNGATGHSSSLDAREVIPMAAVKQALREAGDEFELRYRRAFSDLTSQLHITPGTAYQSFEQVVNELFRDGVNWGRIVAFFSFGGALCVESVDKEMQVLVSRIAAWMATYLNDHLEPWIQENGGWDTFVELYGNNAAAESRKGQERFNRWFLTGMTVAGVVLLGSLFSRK
# Description: (§3) Table printed on a drawing sheet, Figure 27
# Head of the field: Kd, μM | Bcl-xL
# Where the first naming reader finds the target: head: Kd, μM | Bcl-xL
# [14] = biological target: Mcl-1; assay: Kd, μM | Mcl-1
# Description: as §3
# Head of the field: Kd, μM | Mcl-1
# First copying reader's note: The last row (ABT-737) is a small-molecule comparator; the three plots above the table are not copied.
# Where the first naming reader finds the target: head: Kd, μM | Mcl-1
Compound,EC50 [1],EC50 [2],EC50 [3],EC50 [4],EC50 [5],EC50 [6],EC50 [7],EC50 [8],EC50 [9],EC50 [10],EC50 [11],EC50 [12],Kd [13],Kd [14]
CCC(=O)N[C@@H](CCCNC(=N)N)C(=O)N[C@@H](CC(N)=O)C(=O)N[C@H](C(=O)N[C@@H](C)C(=O)N[C@@H](CCCNC(=N)N)C(=O)N[C@@H](Cc1c[nH]cn1)C(=O)N[C@@H](CC(C)C)C(=O)N[C@@H](C)C(=O)NC1(C)CCCC=CCCCC(C)(C(=O)N[C@@H](Cc2ccccc2)C(=O)N[C@@H](C)C(=O)N[C@@H](CCCNC(=N)N)C(=O)N[C@@H](CO)C(=O)N[C@H](C(N)=O)[C@@H](C)CC)NC(=O)[C@H](CC(=O)O)NC(=O)C(C)(C)NC(=O)[C@H](C(C)C)NC1=O)[C@@H](C)CC (some centres unmarked) [SP-9] (Propionyl-RNIARHLA[ξαMeNle(6-ylidene)]V[Aib]D[ξαMeNle(6-ylidene)]FARSI-NH2; staple 9-13),1000 nM,4100 nM,5500 nM,4300 nM,2700 nM,4200 nM,5700 nM,1900 nM,5700 nM,8100 nM,7100 nM,2900 nM,–,–
CCCC[C@H](NC(=O)C1(C)CCCC=CCCCC(C)(NC(=O)[C@H](C)NC(=O)[C@H](CC(C)C)NC(=O)[C@H](Cc2c[nH]cn2)NC(=O)[C@H](CCCNC(=N)N)NC(=O)[C@H](C)NC(=O)[C@@H](NC(=O)[C@H](CC(N)=O)NC(=O)[C@H](CCCNC(=N)N)NC(=O)CC)[C@@H](C)CC)C(=O)N[C@@H](C(C)C)C(=O)NCC(=O)N[C@@H](CC(=O)O)C(=O)N1)C(=O)NC(C)(C)C(=O)N[C@@H](CCCNC(=N)N)C(=O)N[C@@H](CO)C(=O)N[C@H](C(N)=O)[C@@H](C)CC (some centres unmarked) [SP-10] (Propionyl-RNIARHLA[ξαMeNle(6-ylidene)]VGD[ξαMeNle(6-ylidene)][Nle][Aib]RSI-NH2; staple 9-13),1900 nM,5200 nM,2500 nM,3500 nM,1900 nM,5700 nM,6000 nM,1900 nM,5000 nM,8200 nM,8100 nM,3100 nM,–,–
CCCC[C@@H]1NC(=O)CNC(=O)[C@H]([C@@H](C)CC)NC(=O)C(C)(NC(=O)[C@H](CCCNC(=N)N)NC(=O)[C@H](CC(C)C)NC(=O)[C@H](C)NC(=O)[C@H](CCC(N)=O)NC(=O)[C@H](C)NC(=O)[C@@H](NC(=O)[C@H](Cc2c[nH]c3ccccc23)NC(=O)[C@H](CCCNC(=N)N)NC(C)=O)[C@@H](C)CC)CCCC=CCCCC(C)(C(=O)N[C@@H](Cc2ccccc2)C(=O)N[C@@H](CC(N)=O)C(=O)N[C@@H](C)C(=O)N[C@@H](Cc2ccc(O)cc2)C(=O)N[C@@H](Cc2ccc(O)cc2)C(=O)N[C@@H](C)C(=O)N[C@@H](CCCNC(=N)N)C(=O)N[C@@H](CCCNC(=N)N)C(N)=O)NC1=O (some centres unmarked) [SP-12] (Ac-RWIAQALR[ξαMeNle(6-ylidene)]IG[Nle][ξαMeNle(6-ylidene)]FNAYYARR-NH2; staple 9-13),700 nM,700 nM,–,1710 nM,–,900 nM,1900 nM,400 nM,300 nM,500 nM,700 nM,500 nM,0.19 µM,2.5 µM
CC[C@H](C)[C@H](NC(=O)[C@H](Cc1c[nH]c2ccccc12)NC(=O)[C@H](CCCNC(=N)N)NC(C)=O)C(=O)N[C@@H](C)C(=O)N[C@@H](CCC(N)=O)C(=O)N[C@@H](C)C(=O)N[C@@H](CC(C)C)C(=O)N[C@@H](CCCNC(=N)N)C(=O)NC1(C)CCCC=CCCCC(C)(C(=O)N[C@@H](Cc2ccccc2)C(=O)N[C@@H](CC(N)=O)C(=O)N[C@@H](C)C(=O)N[C@@H](Cc2ccccc2)C(=O)N[C@@H](Cc2ccc(O)cc2)C(=O)N[C@@H](C)C(=O)N[C@@H](CCCNC(=N)N)C(=O)N[C@@H](CCCNC(=N)N)C(N)=O)NC(=O)[C@H](CC(=O)O)NC(=O)CNC(=O)[C@H]([C@@H](C)CC)NC1=O (some centres unmarked) [SP-15] (Ac-RWIAQALR[ξαMeNle(6-ylidene)]IGD[ξαMeNle(6-ylidene)]FNAFYARR-NH2; staple 9-13),700 nM,800 nM,600 nM,1700 nM,500 nM,–,2100 nM,400 nM,1000 nM,800 nM,1800 nM,900 nM,–,–
CC[C@H](C)[C@H](NC(=O)[C@H](Cc1c[nH]c2ccccc12)NC(=O)[C@H](CCCNC(=N)N)NC(C)=O)C(=O)N[C@@H](C)C(=O)N[C@@H](CCC(N)=O)C(=O)N[C@@H](C)C(=O)N[C@@H](CC(C)C)C(=O)N[C@@H](CCCNC(=N)N)C(=O)NC1(C)CCCC=CCCCC(C)(C(=O)N[C@@H](Cc2ccccc2)C(=O)N[C@@H](CC(N)=O)C(=O)N[C@@H](C)C(=O)N[C@@H](Cc2ccc(O)cc2)C(=O)N[C@@H](Cc2ccc(O)cc2)C(=O)N[C@@H](C)C(=O)N[C@@H](CCCNC(=N)N)C(=O)N[C@@H](CCCNC(=N)N)C(N)=O)NC(=O)[C@H](CC(N)=O)NC(=O)CNC(=O)[C@H]([C@@H](C)CC)NC1=O (some centres unmarked) [SP-23] (Ac-RWIAQALR[ξαMeNle(6-ylidene)]IGN[ξαMeNle(6-ylidene)]FNAYYARR-NH2; staple 9-13),600 nM,1000 nM,700 nM,1000 nM,500 nM,600 nM,2000 nM,900 nM,1800 nM,1000 nM,900 nM,600 nM,–,–
CC[C@H](C)[C@H](NC(C)=O)C(=O)N[C@@H](Cc1c[nH]c2ccccc12)C(=O)N[C@H](C(=O)N[C@@H](C)C(=O)N[C@@H](CCC(N)=O)C(=O)N[C@@H](C)C(=O)N[C@@H](C)C(=O)N[C@@H](CCCNC(=N)N)C(=O)NC1(C)CCCC=CCCCC(C)(C(=O)N[C@@H](C)C(=O)N[C@@H](CC(N)=O)C(=O)N[C@@H](C)C(=O)N[C@@H](Cc2ccc(O)cc2)C(=O)N[C@@H](Cc2ccc(O)cc2)C(=O)N[C@@H](C)C(=O)N[C@@H](CCCNC(=N)N)C(=O)N[C@@H](CCCNC(=N)N)C(N)=O)NC(=O)CNC(=O)[C@H]([C@@H](C)CC)NC(=O)[C@H](CC(=O)O)NC1=O)[C@@H](C)CC (some centres unmarked) [SP-24] (Ac-IWIAQAAR[ξαMeNle(6-ylidene)]DIG[ξαMeNle(6-ylidene)]ANAYYARR-NH2; staple 9-13),–,> 20000 nM,–,–,–,> 20000 nM,> 20000 nM,> 20000 nM,–,–,> 20000 nM,> 20000 nM,–,–
CC[C@H](C)[C@H](NC(C)=O)C(=O)N[C@@H](Cc1c[nH]c2ccccc12)C(=O)N[C@H](C(=O)N[C@@H](C)C(=O)N[C@@H](CCC(N)=O)C(=O)N[C@@H](C)C(=O)N[C@@H](CC(C)C)C(=O)N[C@@H](CCCNC(=N)N)C(=O)NC1(C)CCCC=CCCCC(C)(C(=O)N[C@@H](Cc2ccccc2)C(=O)N[C@@H](CC(N)=O)C(=O)N[C@@H](C)C(=O)N[C@@H](Cc2ccc(O)cc2)C(=O)N[C@@H](Cc2ccc(O)cc2)C(=O)N[C@@H](C)C(=O)N[C@@H](CCCNC(=N)N)C(=O)N[C@@H](CCCNC(=N)N)C(N)=O)NC(=O)[C@H](CC(N)=O)NC(=O)CNC(=O)[C@H]([C@@H](C)CC)NC1=O)[C@@H](C)CC (some centres unmarked) [SP-25] (Ac-IWIAQALR[ξαMeNle(6-ylidene)]IGN[ξαMeNle(6-ylidene)]FNAYYARR-NH2; staple 9-13),900 nM,1000 nM,600 nM,1000 nM,600 nM,500 nM,600 nM,500 nM,1800 nM,900 nM,1400 nM,1000 nM,–,–
